Results as given in paper PMC11968843, “Sulphostin-inspired N-phosphonopiperidones as selective covalent DPP8 and DPP9 inhibitors” (Nature Communications, 2025).
Several values for one entry are separate records, joined by “and”; a condition that tells them apart may be missing. Equal values may be shown once. Read-outs that look alike come from different tables or passages of the source.

Tests used:
Type in all cases: biochemical
DPP9 [1] = molecular target: T1, DPP9 (Homo sapiens, UniProt Q86TI2); experiment: biochemical; parameters: purchased Proteros Biostructures GmbH, Germany; conditions: for DPP9 activity [%]: replicates
Method: (§1) Enzyme activity of DPP4, DPP8, DPP9 (Proteros Biostructures GmbH, Germany) and PREP (Sigma Aldrich, USA) was determined by measuring the initial velocity of AMC release from the fluorogenic substrate GP-AMC (Sigma Aldrich, USA) using a Tecan Spark® 10 M multimode microplate reader (Tecan Group Ltd., Switzerland) in activity buffer (20 mM HEPES/KOH pH 7.3, 110 mM potassium acetate, 2 mM Mg acetate, 0.5 mM EGTA, 0.02% Tween 20, supplemented with 1 mM DTT) and a final volume of 20 μL for maximal 60 min at 30 °C. Prior to activity measurement, 10 nM enzyme was incubated for 45 min at 30 °C and gentle shaking with the inhibitor compounds in concentrations ranging from 0 to 100 μM. The compounds were dissolved in DMSO and diluted in activity buffer (final DMSO concentration: 1%). […] IC50 values were calculated using Graph-Pad Prism v10.2.3 using the equation: [Inhibitor] vs. response—Variable slope (four parameters). All measurements were performed in triplicates and error bars represent standard errors of the fit.

DPP4 [2] = molecular target: T2, DPP4 (Homo sapiens, UniProt P27487); conditions: for kobs: n=3
T2 construct: purchased Proteros Biostructures GmbH, Germany
Method: To calculate the reaction rate of covalent bond formation between DPP proteins and inhibitor, kinact, KI and kapp was determined as previously described[30],[51]. […] Enzyme activity was measured for a maximum of 120 min at 30 °C, and fluorescence intensities were then plotted against time. Data was fitted to the following equation: Y=(vi/kobs)*(1−exp(−kobs*X)) using Graph-Pad Prism v10.2.3. The obtained pseudo-first-order rate constant was used to determine the maximum enzyme inhibition rate (kinact) and binding affinity (KI) by fitting the plot of kobs against inhibitor concentration to the following equation: Y=kinact/1+(KI/[I]) . The efficiency of covalent bond formation (kapp) was calculated by the ratio of kinact/KI. All measurements were performed in triplicates and error bars represent standard errors of the fit.

DPP4 [3] = molecular target: T2, DPP4; experiment: biochemical; conditions: for DPP4 activity [%]: replicates
Method: as §1

DPP8 [4] = molecular target: T3, DPP8 (Homo sapiens, UniProt Q6V1X1); experiment: biochemical; conditions: for DPP8 activity [%]: replicates
T3 construct: purchased Proteros Biostructures GmbH, Germany
Method: as §1

DPP8 [5] = molecular target: T3, DPP8; experiment: Time-dependent DPP8 inhibition kinetics (kobs, KI, kinact, kapp); conditions: for kobs: n=3
Method: (§2) To calculate the reaction rate of covalent bond formation between DPP proteins and inhibitor, kinact, KI and kapp was determined as previously described[30],[51]. Therefore, 250 µM GP-AMC was added simultaneously with a serial dilution of the inhibitor to 10 nM enzyme. Enzyme activity was measured for a maximum of 120 min at 30 °C, and fluorescence intensities were then plotted against time. Data was fitted to the following equation: Y=(vi/kobs)*(1−exp(−kobs*X)) using Graph-Pad Prism v10.2.3. The obtained pseudo-first-order rate constant was used to determine the maximum enzyme inhibition rate (kinact) and binding affinity (KI) by fitting the plot of kobs against inhibitor concentration to the following equation: Y=kinact/1+(KI/[I]) . The efficiency of covalent bond formation (kapp) was calculated by the ratio of kinact/KI. All measurements were performed in triplicates and error bars represent standard errors of the fit.

DPP9 [6] = molecular target: T1, DPP9; experiment: Time-dependent DPP9 inhibition kinetics (kobs, KI, kinact, kapp); parameters: purchased Proteros Biostructures GmbH, Germany; conditions: for kobs: n=3
Method: as §2

[7] = irreversible inhibition, fit of kobs vs inhibitor concentration

T1 sequence (Q86TI2 whole entry): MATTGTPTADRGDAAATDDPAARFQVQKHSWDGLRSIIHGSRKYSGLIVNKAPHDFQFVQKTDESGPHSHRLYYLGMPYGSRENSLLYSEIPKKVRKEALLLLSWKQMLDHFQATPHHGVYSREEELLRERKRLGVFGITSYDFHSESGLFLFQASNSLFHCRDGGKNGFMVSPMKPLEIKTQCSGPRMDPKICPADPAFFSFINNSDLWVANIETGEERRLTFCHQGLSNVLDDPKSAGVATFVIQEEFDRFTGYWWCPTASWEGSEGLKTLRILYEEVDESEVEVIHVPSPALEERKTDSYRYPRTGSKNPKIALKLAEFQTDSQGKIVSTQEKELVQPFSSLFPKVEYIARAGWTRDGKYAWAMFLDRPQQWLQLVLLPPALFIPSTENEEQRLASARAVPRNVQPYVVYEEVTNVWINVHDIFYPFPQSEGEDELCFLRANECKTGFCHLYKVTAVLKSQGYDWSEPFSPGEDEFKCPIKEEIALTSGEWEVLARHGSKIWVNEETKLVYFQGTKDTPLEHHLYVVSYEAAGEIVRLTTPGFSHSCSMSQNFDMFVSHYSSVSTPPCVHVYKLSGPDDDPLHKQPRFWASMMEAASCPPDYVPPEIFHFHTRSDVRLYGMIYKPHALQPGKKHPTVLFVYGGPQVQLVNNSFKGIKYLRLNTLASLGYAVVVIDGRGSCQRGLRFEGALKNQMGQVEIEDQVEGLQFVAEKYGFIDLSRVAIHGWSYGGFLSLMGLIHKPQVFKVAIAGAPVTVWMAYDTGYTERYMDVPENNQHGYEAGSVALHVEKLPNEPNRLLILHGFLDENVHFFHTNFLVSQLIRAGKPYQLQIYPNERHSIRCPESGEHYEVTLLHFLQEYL
T2 sequence (P27487 whole entry): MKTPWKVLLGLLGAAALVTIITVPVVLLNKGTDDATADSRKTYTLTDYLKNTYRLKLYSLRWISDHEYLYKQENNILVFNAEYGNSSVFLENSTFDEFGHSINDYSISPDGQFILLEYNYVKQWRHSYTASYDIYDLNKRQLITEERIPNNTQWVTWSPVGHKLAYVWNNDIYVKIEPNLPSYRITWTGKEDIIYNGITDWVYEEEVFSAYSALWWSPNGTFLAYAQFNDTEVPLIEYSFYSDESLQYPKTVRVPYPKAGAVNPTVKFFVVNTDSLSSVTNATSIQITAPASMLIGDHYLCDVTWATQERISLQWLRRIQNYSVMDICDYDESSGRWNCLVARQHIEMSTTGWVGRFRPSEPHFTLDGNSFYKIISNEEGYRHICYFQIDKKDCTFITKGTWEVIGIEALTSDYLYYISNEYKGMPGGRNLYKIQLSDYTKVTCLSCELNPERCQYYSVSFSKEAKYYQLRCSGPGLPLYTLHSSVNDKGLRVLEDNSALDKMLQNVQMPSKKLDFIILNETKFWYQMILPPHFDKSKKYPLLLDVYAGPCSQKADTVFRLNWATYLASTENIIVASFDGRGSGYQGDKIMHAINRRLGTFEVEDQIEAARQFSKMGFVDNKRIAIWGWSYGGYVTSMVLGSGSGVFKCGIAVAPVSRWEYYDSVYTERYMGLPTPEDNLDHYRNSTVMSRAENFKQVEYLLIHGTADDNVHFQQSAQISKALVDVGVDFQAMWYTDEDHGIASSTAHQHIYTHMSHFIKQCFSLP
T3 sequence (Q6V1X1 whole entry): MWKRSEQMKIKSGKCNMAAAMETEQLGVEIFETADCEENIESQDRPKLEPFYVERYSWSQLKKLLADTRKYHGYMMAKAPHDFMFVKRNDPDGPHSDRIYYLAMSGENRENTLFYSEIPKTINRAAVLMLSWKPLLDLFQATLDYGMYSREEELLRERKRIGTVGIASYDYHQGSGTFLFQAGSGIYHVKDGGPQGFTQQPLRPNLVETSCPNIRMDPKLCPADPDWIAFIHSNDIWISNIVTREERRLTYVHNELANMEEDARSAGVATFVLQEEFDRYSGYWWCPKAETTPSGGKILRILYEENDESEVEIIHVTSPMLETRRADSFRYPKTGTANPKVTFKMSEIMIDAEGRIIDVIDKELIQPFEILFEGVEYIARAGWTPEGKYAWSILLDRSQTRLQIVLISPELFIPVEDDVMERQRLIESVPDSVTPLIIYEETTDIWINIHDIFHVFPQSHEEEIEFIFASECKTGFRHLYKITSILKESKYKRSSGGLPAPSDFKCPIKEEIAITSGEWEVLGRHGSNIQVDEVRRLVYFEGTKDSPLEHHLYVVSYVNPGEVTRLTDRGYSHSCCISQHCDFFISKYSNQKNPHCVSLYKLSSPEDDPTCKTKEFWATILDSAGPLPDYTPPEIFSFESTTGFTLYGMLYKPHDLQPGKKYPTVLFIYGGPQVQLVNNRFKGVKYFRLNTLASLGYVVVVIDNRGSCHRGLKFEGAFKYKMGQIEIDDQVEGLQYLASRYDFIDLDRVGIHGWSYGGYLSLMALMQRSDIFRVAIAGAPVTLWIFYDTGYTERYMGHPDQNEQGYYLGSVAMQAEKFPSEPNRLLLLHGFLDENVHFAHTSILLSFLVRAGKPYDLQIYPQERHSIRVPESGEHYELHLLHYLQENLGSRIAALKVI

## C#CCCCP(=O)(OCC)N1CCCC(N)C1=O.O=C(O)C(F)(F)F (mixture of isomers) [Compound 9]
DPP9 [1]; GP-AMC 250 µM, 10 nM enzyme, 45 min pre-incubation at 30 °C, read-out: IC50 DPP9
  IC50: 1.57 ± 0.092 µM
DPP9 [1]; c 156.25 nM
  DPP9 activity [%]: 96.2584% and 100.319% and 101.85%
DPP9 [1]; c 312.5 nM
  DPP9 activity [%]: 100.858% and 91.3501% and 92.0123%
DPP9 [1]; c 625 nM
  DPP9 activity [%]: 84.7331% and 76.9427% and 84.4618%
DPP9 [1]; c 1562.5 nM
  DPP9 activity [%]: 49.8961% and 58.6041% and 49.6299%
DPP9 [1]; c 2500 nM
  DPP9 activity [%]: 31.5472% and 27.5156% and 32.2809%
DPP9 [1]; c 3125 nM
  DPP9 activity [%]: 24.6772% and 31.33% and 43.1829%
DPP9 [1]; c 5000 nM
  DPP9 activity [%]: 13.8796% and 12.6206% and 14.7121%
DPP9 [1]; c 6250 nM
  DPP9 activity [%]: 10.217% and 12.6398% and 8.944%
DPP9 [1]; c 10000 nM
  DPP9 activity [%]: 3.977% and 3.748% and 3.468%
DPP9 [1]; c 25000 nM
  DPP9 activity [%]: 1.6052% and 1.507% and 1.185%
DPP9 [1]; c 50000 nM
  DPP9 activity [%]: 0.4873% and 0.1919% and 0.2191%
DPP9 [1]; c 100000 nM
  DPP9 activity [%]: -0.1705% and -0.1127% and 0.03998%
DPP4 [2]; DPP4
  kapp: 481.66 M⁻¹ s⁻¹
  kinact best fit: 0.005372 s⁻¹
DPP4 [2]; DPP4, c 6250 nM
  kobs: 0.002232 s⁻¹
DPP4 [2]; DPP4, c 25000 nM
  kobs: 0.003486 s⁻¹
DPP4 [2]; DPP4, c 50000 nM
  kobs: 0.004579 s⁻¹
DPP4 [2]; DPP4, fit of kobs vs inhibitor concentration, read-out: KI best fit
  KI (inactivation): 11.2 µM
DPP4 [2]; DPP4, read-out: KI best fit
  KI (inactivation): 11.2 µM
DPP4 [2]; [7]
  kinact DPP4: 0.00537 ± 0.00033 s⁻¹
DPP4 [2]; irreversible inhibition, fit of kobs vs inhibitor concentration, read-out: KI DPP4
  KI (inactivation): 11.2 µM
DPP4 [2]; ratio kinact/KI
  kapp DPP4: 482 M⁻¹ s⁻¹
DPP4 [3]; GP-AMC 250 µM, 10 nM enzyme, 45 min pre-incubation at 30 °C, read-out: IC50 DPP4
  IC50: 2.99 ± 0.97 µM
DPP4 [3]; c 1562.5 nM
  DPP4 activity [%]: 65.3186% and 69.0903% and 69.4857%
DPP4 [3]; c 3125 nM
  DPP4 activity [%]: 56.1551% and 36.739%
DPP4 [3]; c 6250 nM
  DPP4 activity [%]: 16.7655% and 22.4037% and 25.1515%
DPP4 [3]; c 25000 nM
  DPP4 activity [%]: 0.4601% and 0.7453% and 0.687%
DPP4 [3]; c 50000 nM
  DPP4 activity [%]: 0.1815% and 0.2139% and 0.1037%
DPP4 [3]; c 100000 nM
  DPP4 activity [%]: 0.1102% and 0.02592% and 0.006479%
DPP8 [4]; DPP8/9 IC50, fold more potent
  potency relative to C8-alkyne compound 10: about 20 fold
DPP8 [4]; GP-AMC 250 µM, 10 nM enzyme, 45 min pre-incubation at 30 °C, read-out: IC50 DPP8
  IC50: 0.668 ± 0.043 µM
DPP8 [4]; c 15.625 nM
  DPP8 activity [%]: 88.0116% and 95.2585% and 92.8653%
DPP8 [4]; c 31.25 nM
  DPP8 activity [%]: 98.7519% and 93.0125% and 99.7656%
DPP8 [4]; c 62.5 nM
  DPP8 activity [%]: 100.514% and 96.8883% and 98.9251%
DPP8 [4]; c 250 nM
  DPP8 activity [%]: 89.8086% and 92.0804% and 74.9743%
DPP8 [4]; c 312.5 nM
  DPP8 activity [%]: 76.3712% and 75.8504% and 60.7309%
DPP8 [4]; c 500 nM
  DPP8 activity [%]: 58.2452% and 66.831% and 55.6678%
DPP8 [4]; c 625 nM
  DPP8 activity [%]: 43.0971% and 49.0696% and 43.2225%
DPP8 [4]; c 1000 nM
  DPP8 activity [%]: 45.7318% and 41.4388% and 38.9079%
DPP8 [4]; c 1562.5 nM
  DPP8 activity [%]: 30.9827% and 31.9714% and 36.8996%
DPP8 [4]; c 2500 nM
  DPP8 activity [%]: 6.46% and 6.6893% and 8.361%
DPP8 [4]; c 3125 nM
  DPP8 activity [%]: 13.5787% and 24.1011% and 12.0301%
DPP8 [4]; c 5000 nM
  DPP8 activity [%]: 1.65% and 1.018% and 2.196%
DPP8 [4]; c 6250 nM
  DPP8 activity [%]: 4.899% and 5.3654% and 4.34%
DPP8 [4]; c 10000 nM
  DPP8 activity [%]: 0.2086% and 0.07371% and -0.1898%
DPP8 [4]; c 25000 nM
  DPP8 activity [%]: 1.765% and 1.4465% and 2.043%
DPP8 [4]; c 50000 nM
  DPP8 activity [%]: 2.554% and 1.757% and 1.4548%
DPP8 [4]; c 100000 nM
  DPP8 activity [%]: 1.577% and 1.418% and 1.083%
DPP8 [4]; fold more potent inhibitor
  potency relative to alkyl compound 5: about 20 fold
DPP8 [5]; DPP8
  kapp: 170.93 M⁻¹ s⁻¹
  kinact best fit: 0.0005333 s⁻¹
DPP8 [5]; DPP8, c 312.5 nM
  kobs: 5.77e-05 s⁻¹
DPP8 [5]; DPP8, c 625 nM
  kobs: 8.71e-05 s⁻¹
DPP8 [5]; DPP8, c 2500 nM
  kobs: 0.000239 s⁻¹
DPP8 [5]; DPP8, fit of kobs vs inhibitor concentration, read-out: KI best fit
  KI (inactivation): 3.12 µM
DPP8 [5]; DPP8, read-out: KI best fit
  KI (inactivation): 3.12 µM
DPP8 [5]; [7]
  kinact DPP8: 0.00053 ± 0.00004 s⁻¹
DPP8 [5]; irreversible inhibition, fit of kobs vs inhibitor concentration, read-out: KI DPP8
  KI (inactivation): 3.12 µM
DPP8 [5]; ratio kinact/KI
  kapp DPP8: 171 M⁻¹ s⁻¹
DPP9 [6]; DPP9
  kapp: 68.49 M⁻¹ s⁻¹
  kinact best fit: 0.0003473 s⁻¹
DPP9 [6]; DPP9, c 312.5 nM
  kobs: 2.92e-05 s⁻¹
DPP9 [6]; DPP9, c 625 nM
  kobs: 4.78e-05 s⁻¹
DPP9 [6]; DPP9, c 2500 nM
  kobs: 0.000103 s⁻¹
DPP9 [6]; DPP9, fit of kobs vs inhibitor concentration, read-out: KI best fit
  KI (inactivation): 5.07 µM
DPP9 [6]; DPP9, read-out: KI best fit
  KI (inactivation): 5.07 µM
DPP9 [6]; [7]
  kinact DPP9: 0.00035 ± 0.00007 s⁻¹
DPP9 [6]; irreversible inhibition, fit of kobs vs inhibitor concentration, read-out: KI DPP9
  KI (inactivation): 5.07 µM
DPP9 [6]; ratio kinact/KI
  kapp DPP9: 68 M⁻¹ s⁻¹
